These results are taken from US11524951B2, “2-(2,4,5-substituted-anilino)pyrimidine compounds” (AstraZeneca AB, priority 2011, dated 2022).

SMILES strings stand for the structures.

What all share (type): cell-based
Test [1] has as its target T1, Exon19 deletion EGFR (Homo sapiens, UniProt P00533, DEL746-750).
T1 construct: Assays to measure cellular phosphorylation of endogenous p-EGFR in cell lysates; endogenous in cells; host or cells: PC9 (human lung cell line)
The test can be described thus: Exon19 deletion EGFR (activating single mutant) cellular phosphorylation assay. The settings on record: PC9 human lung cells (Exon 19 deletion EGFR); endogenous p-EGFR in cell lysates by ELISA; 2 h with compound; read-out: Assay 1 (IC50). On the technique in general: In an ELISA, binding on a coated surface is turned into a signal by an enzyme label.

The target of test [2] is T2, L858R/T790M EGFR (Homo sapiens, UniProt P00533, L858R/T790M).
T2 construct: Assays to measure cellular phosphorylation of endogenous p-EGFR in cell lysates; endogenous in cells; host or cells: NCI-H1975 (human lung cell line)
T2 sequence (P00533 25-1210 T790M/L858R): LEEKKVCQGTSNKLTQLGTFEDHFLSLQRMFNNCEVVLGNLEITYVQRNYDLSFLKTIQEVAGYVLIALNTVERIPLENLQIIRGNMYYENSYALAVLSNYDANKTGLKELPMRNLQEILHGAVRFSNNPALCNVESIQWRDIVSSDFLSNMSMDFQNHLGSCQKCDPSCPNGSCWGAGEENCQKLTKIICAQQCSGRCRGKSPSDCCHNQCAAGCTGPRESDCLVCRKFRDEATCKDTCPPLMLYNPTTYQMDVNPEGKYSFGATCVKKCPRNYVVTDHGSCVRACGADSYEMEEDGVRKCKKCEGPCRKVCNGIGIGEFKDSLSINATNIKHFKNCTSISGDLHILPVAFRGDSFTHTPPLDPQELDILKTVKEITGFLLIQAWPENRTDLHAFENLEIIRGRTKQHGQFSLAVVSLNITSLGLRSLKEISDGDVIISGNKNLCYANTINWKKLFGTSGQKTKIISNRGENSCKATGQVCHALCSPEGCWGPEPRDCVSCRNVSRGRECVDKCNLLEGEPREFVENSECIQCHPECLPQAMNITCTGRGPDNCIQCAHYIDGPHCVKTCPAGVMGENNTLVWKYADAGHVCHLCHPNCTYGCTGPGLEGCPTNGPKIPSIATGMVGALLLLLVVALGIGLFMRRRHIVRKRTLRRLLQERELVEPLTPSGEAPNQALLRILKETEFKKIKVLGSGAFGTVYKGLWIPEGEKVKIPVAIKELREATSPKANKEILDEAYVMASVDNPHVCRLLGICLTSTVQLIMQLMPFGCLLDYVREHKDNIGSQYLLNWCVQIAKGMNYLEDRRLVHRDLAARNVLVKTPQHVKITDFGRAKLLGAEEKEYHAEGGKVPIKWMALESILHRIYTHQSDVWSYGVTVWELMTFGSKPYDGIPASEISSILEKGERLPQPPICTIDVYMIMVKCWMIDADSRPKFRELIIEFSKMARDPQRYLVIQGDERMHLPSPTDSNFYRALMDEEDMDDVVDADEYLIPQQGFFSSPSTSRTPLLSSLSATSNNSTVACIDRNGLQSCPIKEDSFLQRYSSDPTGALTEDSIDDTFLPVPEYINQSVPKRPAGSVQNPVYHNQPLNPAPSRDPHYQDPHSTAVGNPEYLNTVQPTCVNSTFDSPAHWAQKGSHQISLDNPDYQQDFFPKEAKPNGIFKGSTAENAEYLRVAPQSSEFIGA
The test can be described thus: L858R/T790M EGFR (double mutant) cellular phosphorylation assay. The conditions noted are these: NCI-H1975 human lung cells; endogenous p-EGFR in cell lysates by ELISA; 2 h with compound.

In test [3] the target is T3, Wild-type EGFR (Homo sapiens, UniProt P00533).
T3 construct: Assays to measure cellular phosphorylation of endogenous p-EGFR in cell lysates; endogenous in cells; host or cells: LoVo (human colon cell line)
T3 sequence (P00533 25-1210): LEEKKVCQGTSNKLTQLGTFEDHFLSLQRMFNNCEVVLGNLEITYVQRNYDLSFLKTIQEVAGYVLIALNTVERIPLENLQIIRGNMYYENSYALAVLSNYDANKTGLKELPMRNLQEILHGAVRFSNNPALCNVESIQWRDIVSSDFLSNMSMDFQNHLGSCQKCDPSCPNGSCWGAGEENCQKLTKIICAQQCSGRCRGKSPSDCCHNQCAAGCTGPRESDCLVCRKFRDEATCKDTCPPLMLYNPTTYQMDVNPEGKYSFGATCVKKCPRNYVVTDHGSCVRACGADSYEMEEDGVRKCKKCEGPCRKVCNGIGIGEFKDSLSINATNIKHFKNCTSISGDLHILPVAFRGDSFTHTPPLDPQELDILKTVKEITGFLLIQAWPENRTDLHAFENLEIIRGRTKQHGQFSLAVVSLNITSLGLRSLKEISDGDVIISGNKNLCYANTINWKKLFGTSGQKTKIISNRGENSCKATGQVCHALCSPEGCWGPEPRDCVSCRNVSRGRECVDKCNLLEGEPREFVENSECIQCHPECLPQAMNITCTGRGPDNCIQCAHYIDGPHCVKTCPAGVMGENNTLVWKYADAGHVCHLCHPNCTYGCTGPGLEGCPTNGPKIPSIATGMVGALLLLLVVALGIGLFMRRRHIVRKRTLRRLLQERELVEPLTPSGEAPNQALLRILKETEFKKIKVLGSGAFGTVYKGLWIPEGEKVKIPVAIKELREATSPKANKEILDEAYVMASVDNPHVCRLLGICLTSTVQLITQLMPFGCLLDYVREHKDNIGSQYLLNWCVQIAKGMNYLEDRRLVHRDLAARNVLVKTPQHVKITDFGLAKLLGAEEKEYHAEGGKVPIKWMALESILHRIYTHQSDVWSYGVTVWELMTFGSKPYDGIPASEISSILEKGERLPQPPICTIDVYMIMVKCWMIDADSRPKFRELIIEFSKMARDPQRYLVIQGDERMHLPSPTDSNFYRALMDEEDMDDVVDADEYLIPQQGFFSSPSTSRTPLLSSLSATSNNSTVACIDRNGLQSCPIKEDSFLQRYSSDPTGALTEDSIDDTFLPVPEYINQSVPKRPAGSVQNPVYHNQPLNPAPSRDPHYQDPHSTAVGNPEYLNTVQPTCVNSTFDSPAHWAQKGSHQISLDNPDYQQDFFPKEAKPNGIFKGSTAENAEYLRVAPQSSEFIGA
The test can be described thus: Wild-type EGFR cellular phosphorylation assay. The conditions noted are these: LoVo human colon cells; endogenous p-EGFR in cell lysates by ELISA; 2 h with compound, then stimulated 100 ng/ml for 10 minutes; read-out: Assay 3 (IC50).

The term IC50 denotes the concentration that inhibits the measured activity by half.

T1 sequence (P00533 with tags, fused parts or gaps DEL746-750): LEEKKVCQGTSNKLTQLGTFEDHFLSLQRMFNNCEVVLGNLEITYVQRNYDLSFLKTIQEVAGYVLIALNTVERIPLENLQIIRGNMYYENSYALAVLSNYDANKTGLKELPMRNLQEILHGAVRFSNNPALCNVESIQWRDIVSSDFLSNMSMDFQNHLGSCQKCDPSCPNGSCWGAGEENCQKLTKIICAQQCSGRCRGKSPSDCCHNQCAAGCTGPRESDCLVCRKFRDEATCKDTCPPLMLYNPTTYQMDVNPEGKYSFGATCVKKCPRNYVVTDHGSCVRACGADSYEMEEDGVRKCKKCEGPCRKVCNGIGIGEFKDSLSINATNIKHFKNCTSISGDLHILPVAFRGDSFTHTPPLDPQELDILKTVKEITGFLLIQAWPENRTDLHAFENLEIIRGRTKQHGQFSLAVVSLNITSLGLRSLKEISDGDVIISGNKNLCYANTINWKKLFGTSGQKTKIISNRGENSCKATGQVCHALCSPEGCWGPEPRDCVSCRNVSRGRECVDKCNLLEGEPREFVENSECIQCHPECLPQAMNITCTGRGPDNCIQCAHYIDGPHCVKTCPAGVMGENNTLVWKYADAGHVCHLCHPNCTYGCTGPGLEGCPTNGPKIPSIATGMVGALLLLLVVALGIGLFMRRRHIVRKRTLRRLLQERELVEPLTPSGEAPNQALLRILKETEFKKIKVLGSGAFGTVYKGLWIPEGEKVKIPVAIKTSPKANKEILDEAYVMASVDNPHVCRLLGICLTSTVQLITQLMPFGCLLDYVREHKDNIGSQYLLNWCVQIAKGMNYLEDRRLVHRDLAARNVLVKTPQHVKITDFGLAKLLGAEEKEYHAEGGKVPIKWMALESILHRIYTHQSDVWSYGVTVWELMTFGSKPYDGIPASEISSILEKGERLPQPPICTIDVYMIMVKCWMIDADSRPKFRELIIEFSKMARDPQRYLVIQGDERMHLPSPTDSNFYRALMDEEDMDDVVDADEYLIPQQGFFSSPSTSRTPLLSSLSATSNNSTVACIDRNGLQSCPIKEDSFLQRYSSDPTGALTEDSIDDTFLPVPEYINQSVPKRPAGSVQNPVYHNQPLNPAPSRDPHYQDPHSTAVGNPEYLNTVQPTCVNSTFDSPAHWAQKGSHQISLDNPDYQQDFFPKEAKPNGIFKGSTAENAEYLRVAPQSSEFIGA

Consider `C=CC(=O)Nc1cc(Nc2nccc(-c3cnn4ccccc34)n2)c(OC)cc1N1CC[C@@H]2CN(C)C[C@@H]21` [Example 55, N-[2-[(3aR,6aR)-5-Methyl-2,3,3a,4,6,6a-hexahydropyrrolo[3,4-b]pyrrol-1-yl]-4-methoxy-5-[(4-pyrazolo[1,5-a]pyridin-3-ylpyrimidin-2-yl)amino]phenyl]prop-2-enamide], for which the IC50 in test [1] was 0.00643 µM; in test [2] it was 0.00286 µM; in test [3] it was 0.507 µM.

As to `C=CC(=O)Nc1cc(Nc2nccc(-c3cnn4ccccc34)n2)c(OC)cc1N1CC2(CCCN2C)C1` [Example 56, N-{4-Methoxy-2-[8-methyl-2,8-diazaspiro[3.4]octan-2-yl]-5-[(4-pyrazolo[1,5-a]pyridin-3-ylpyrimidin-2-yl)amino]phenyl}prop-2-enamide], the IC50 in test [1] was determined as 0.0443 µM; in test [2] it was 0.0292 µM; in test [3] it was 3.5 µM.

For the compound `C=CC(=O)Nc1cc(Nc2nccc(-c3c[nH]c4ccccc34)n2)c(OC)cc1N1CC[C@@H](N(C)C)C1` [Example 57, N-(2-{(3R)-3-Dimethylaminopyrrolidin-1-yl}-5-{[4-(1H-indol-3-yl)pyrimidin-2-yl]amino}-4-methoxyphenyl)prop-2-enamide], the IC50 stood at 0.00645 µM in test [1], 0.0145 µM in test [2] and 0.0893 µM in test [3].

For the compound `C=CC(=O)Nc1cc(Nc2nccc(-c3c[nH]c4ccccc34)n2)c(OC)cc1N1CC(N(C)C)C1` [Example 58, N-(2-[3-Dimethylaminoazetidin-1-yl]-5-{[4-(1H-indol-3-yl)pyrimidin-2-yl]amino}-4-methoxyphenyl)prop-2-enamide], the IC50 in test [1] is 0.00708 µM; in test [2] it was 0.0168 µM; in test [3] it was 0.179 µM.

Turning to `C=CC(=O)Nc1cc(Nc2nccc(-c3c[nH]c4ccccc34)n2)c(OC)cc1N(C)CCN(C)C` [Example 59, N-(2-[2-Dimethylaminoethyl-methylamino]-5-{[4-(1H-indol-3-yl)pyrimidin-2-yl]amino}-4-methoxyphenyl)prop-2-enamide], the IC50 in test [1] came to 0.00227 µM; in test [2], 0.00302 µM; in test [3], 0.0282 µM.

`C=CC(=O)Nc1cc(Nc2nccc(-c3cn(C)c4ccccc34)n2)c(OC)cc1N(C)CCNC` [Example 60, N-(4-Methoxy-5-{[4-(1-methylindol-3-yl)pyrimidin-2-yl]amino}-2-[methyl-(2-methylaminoethyl)amino]phenyl)prop-2-enamide]: the IC50 in test [1] turned out to be 0.0146 µM; in test [2] it was 0.0489 µM; in test [3], 0.624 µM.
